The text below walks through data of patent publication US12637464B2, “Tetracyclic compounds for treating brain disorders” (The Regents of the University of California, priority 2021, dated 2026).

This test deals with C57BL/6J mice. The test is described as follows: 4-odor discrimination and reversal. Type of test: in vivo, mouse. The settings on record: 1 mg/kg IP. The procedure: 4-Odor Discrimination and Reversal. A 4-odor discrimination and reversal behavioral assay was performed as described previously with slight modifications. Food restriction was begun five days before the discrimination and reversal tests to reduce animals' body weight to ˜80% of their starting weight. A total of 31 C57BL/6J mice 2-3 months of age were used in this assay. Eleven mice (5 males, 6 females) served as VEH/unstressed controls, 10 animals (4 males, 6 females) as a VEH/stress group, and 10 animals (4 males, 6 females) as a treatment/stress group. Both the VEH/stress and […] groups were subjected to a 7-day unpredictable mild stress protocol using previously validated stressors. Two stressors were delivered during the day, with additional overnight stressors on 4 of the days. […]

SMILES strings stand for the structures.

Take `CCN(CC)C(=O)[C@@H]1C=C2c3cccc4ccn(c34)C[C@H]2N(C)C1` [(+)-JRT]: the stimulus discrimination result (4-odor discrimination phase, stressed mice) is given as “does not impact stimulus discrimination”. For the same molecule, the “cognitive deficits induced by unpredictable mild stress (reversal)” value (reversal phase, after 7-day unpredictable mild stress) is on record as “rescues cognitive deficits induced by unpredictable mild stress”.
